Assay results taken from patent US8748408B2, “Methods of treatment of mitochondrial disorders” (The Regents of the University of California, priority 1999, dated 2014).

Tests used:
Assay type in all cases: in vivo, human
[1] = system: child with Leigh syndrome, lactic acidemia, and renal tubular acidosis; experiment: Administration of triacetyluridine to a subject having Leigh syndrome (Example 5)
Description: patient two was a child with Leigh syndrome, lactic acidemia, and renal tubular acidosis who suffered a hypertensive crisis and acute edema as they came out of general anesthesia for replacement of an elective percutaneous gastrostomy tube (PEG). […] They developed pneumonia as a complication of PEG and developed new Leigh syndrome lesions in the spinal cord, midbrain, and thalamus. They drifted into a coma 3 days after PEG placement. The person received emergency treatment with triacetyluridine.

[2] = system: adult with familial history of mitochondrial disease
Description: KL is an adult who first came to the investigator's attention after the diagnosis of their son with mitochondrial disease leading to stroke-like episodes, ataxia, and encephalopathy. Before administration of triacetyluridine, KL suffered with recurrent pyelonephritis, infection-association neutropenia, […] migraines, grand-mal seizures, neurogenic bowel and bladder requiring QID catheterization, biliary […], dysphagia and pc cough, peripheral and autonomic polyneuropathy, painful paresthesias, cardiac conduction disturbances with SVT and tachy-brady syndrome, severe orthostatic hypotension, orthopnea, and poor functional capacity with inability to climb a flight of stairs without stopping to rest, and declining cognitive performance with episodes of clouded sensorium and poor memory that would last hours to days. KL started triacetyluridine at a dose of 0.05 g/kg/d.

[3] = system: child with MARIAHS syndrome
Description: CMZ is a child with mitochondrial ataxia, recurrent infections, aphasia, hypouricemia/hypomyelination, and seizures ([…] syndrome), cared for […]. Symptoms indicate a primary deficiency in the enzyme dihydroorotate dehydrogenase, the rate-limiting step in de novo pyrimidine synthesis, which could lead to a functional dependence on exogenous uridine. […] treatment began with uridine. […] the treating agent was switched to triacetyluridine because it is a more easily absorbed form of uridine.

[4] = system: patients with mitochondrial renal tubular acidosis (RTA); experiment: Treatment of patients with mitochondrial renal tubular acidosis with triacetyluridine (Example 1)
Description: Four patients with mitochondrial renal tubular acidosis (RTA) were studied. Mitochondrial RTAs often defy simple classification as proximal (type II) or distal (type I) tubulopathies, as these patients are often mosaics and express features of both phenotypes leading to hyperchloremic (non-anion gap) metabolic acidosis.
Patient #1 was a person with Leigh syndrome, lactic acidemia, and complex I deficiency who required 200 mEq/day of NaHCO3 to compensate for renal losses of alkali, and maintain serum bicarbonate levels above 20 mEq/l, 1+ proteinuria, and significant aminoaciduria with hydroxyprolinuria.
Patient #2 was a person with Leigh syndrome, and complex IV (COX) deficiency, who also required 200 mEq/day of NaHCO3.
Patient #3 was a person with Leigh syndrome, lactic acidemia, 1+ proteinuria, and pyruvate dehydrogenase (PDH) deficiency, who required up to 210 mEq/day of NaHCO3.
Patient #4 was a person with 3-hydroxyisobutyric aciduria, lactic acidemia, and encephalomyopathy, who required 468 mEq/day of NaHCO3.
Blood and urine electrolytes, creatinine, pH, urinalysis, and venous blood gases were studied before and after treatment. Quantitative urine amino acids and organic acids were also obtained. Pre-enrollment doses of oral sodium bicarbonate were continued for the first 3 days of triacetyluridine treatment, then reduced weekly as tolerated to maintain serum bicarbonate above 20 mEq/1.
Patients received triacetyluridine 2 g/m^2 PO TID.

[5] = system: child with refractory epilepsy and multiple mitochondrial DNA deletion syndrome; experiment: Administration of triacetyluridine to a subject having multiple mitochondrial DNA deletion syndrome (Example 4); conditions: patient
Description: patient one is a child with refractory epilepsy. As a 5th grader they were able to play little league baseball. […] This disorder produces multiple deleted copies of mitochondrial DNA and can lead to a number of symptoms. SK began deteriorating. They had 2 ICU admissions for crescendo epilepsy, and had 7 changes in their anticonvulsant regimen in the succeeding 4 months. They were having 8-10 grand-mal seizures every night, leaving them postictal for much of the morning. They also developed upper lip automaticity. The patient was initially administered 0.05 g/kg/day of triacetyluridine for one week, followed by 0.16 g/kg/day for 1 week, and then 0.24 g/kg/day.

[6] = Tegretol level in patient (Example 4); conditions: both before and after starting triacetyluridine, found subtherapeutic
[7] = patient three, started at 0.05 g/kg/d
[8] = Patient #1, triacetyluridine 2 g/m^2 PO TID

## CC(=O)OC[C@H]1O[C@@H](n2ccc(=O)[nH]c2=O)[C@H](OC(C)=O)[C@@H]1OC(C)=O [triacetyluridine, 2′, 3′, 5′-tri-O-acetyl-1-β-D-uridine]
[1]; patient two
  aminoaciduria: improved
[1]; patient two (before: 25 mEg/kg/day)
  need for supplemental bicarbonate: did not require any further supplemental bicarbonate
[1]; patient two, emergency treatment with triacetyluridine
  time to complete resolution of renal tubular acidosis: ≤ 12 h
[1]; patient two, in coma before treatment
  clinical outcome: never awoke from their coma, and died after a 4 week terminal illness
[1]; patient two, while receiving continuous parenteral nutrition
  time until plasma amino acids returned to normal ranges: ≤ 2 h
[2]; human, in vivo
  cystic breast disease: flared slightly
  menstrual cycle: returned to normal
  menstrual cycles: shortened from every 4 weeks to every 2 weeks
[2]; patient three (before: QID catheterization), started at 0.05 g/kg/d
  I&O catheterization required: 1-2 times a week
[2]; patient three, after 6 weeks of triacetyluridine
  functional capacity: able to walk a full mile
[2]; [7]
  pain of biliary dyssynergia: gone
  painful paresthesias: gone, although some numbness persists
  seizures and migraine since starting treatment: has not had a seizure or migraine
  sensorium: Her sensorium has cleared
  tachy-brady syndrome: persists
[3]; MARIAHS syndrome patient
  overall condition and symptomotology (conclusion): dramatic improvement in the patient's condition, and a marked reduction in symptomotology
[3]; human, in vivo
  toxicity: no biochemical, hematologic, or clinical toxicity
[3]; patient four, uridine, then triacetyluridine
  truncal ataxia: Mild truncal ataxia persists
[3]; patient four, within 2 months of a dose increase to 0.2 g/kg/day
  language and gait: rapid increase in expressive language acquisition and a narrowing of their previous broad-based, ataxic gait
[4]; Patient #1 (Leigh syndrome, complex I deficiency), triacetyluridine 2 g/m^2 PO TID
  time to complete correction of RTA: ≤ 24 h
[4]; [8]
  serum bicarbonate maintained without any further oral bicarbonate: more than 20 mEq/l
  time to complete resolution of hydroxyprolinuria: ≤ 2 weeks
[4]; Patient #2 (initially 99 mEq/l), after 36 hours on treatment, 2 g/m^2 PO TID
  urinary bicarbonate losses: < 5 mEq/l
[4]; Patient #2, after 3 weeks of treatment, 2 g/m^2 PO TID
  share of pre-enrollment dose of bicarbonate needed to maintain normal serum bicarbonate: 25%
[4]; Patient #3 (59 mEq/l prior to therapy), after 36 hours of treatment, 2 g/m^2 PO TID
  urinary bicarbonate losses: < 5 mEq/l
[4]; Patient #3, after 3 weeks of treatment, 2 g/m^2 PO TID
  share of previous dose of bicarbonate required: 10%
[4]; Patient #4, following 1 week of treatment, 2 g/m^2 PO TID
  reduction in oral bicarbonate requirement: 35%
[4]; patients with mitochondrial disease, 2 g/m^2 PO TID
  patients in whom renal tubular acidosis was corrected or dramatically improved: 4 out of 4
[5]; after increase to 0.24 g/kg/d with 0.5 g calcium pyruvate TID added, transient escalation, then after 3 days
  nocturnal seizure activity: decreased to zero
[5]; first three days, 0.05 g/kg/day
  seizures and involuntary lip movements: stopped completely
[5]; for several weeks
  functional outcome: able to return to school and play little league baseball again

## NC(=O)N1c2ccccc2C=Cc2ccccc21 [tegretol]
[6]
  tegretol level: 4 µg/mL

## O=c1ccn([C@@H]2O[C@H](CO)[C@@H](O)[C@H]2O)c(=O)[nH]1 [uridine, reference compound]
[3]; patient four, after 20 months on uridine
  follow-up brain MRI, white matter disease: no progression in their white matter disease
